Laboratory results published in patent publication US20240197800A1, “Aristotelia chilensis EXTRACTS FOR TREATING FUNGAL INFECTIONS” (Phytonet Doo Beograd-rakovica, priority 2021, published 2024).

How the values were obtained:
[1] = system: candida, three clinical isolates; assay: inhibition of candida filamentation in vitro, checkerboard assay with nystatin in RPMI medium; assay type: cell-based, Candida albicans
Experimental: The inhibitory effect of Maqui berry extract and nystatin, one of the most commonly applied topical antifungal drugs, on candida filamentation was investigated in vitro in three clinical isolates in RPMI medium in a checkerboard assay. The extract was tested in a concentration range of 0.125; 0.25 and 0.5 mg/mL (31.25; 62.5 and 125 μg/mL delphinidin, respectively 43.75; 87.5 and 175 μg/mL total anthocyanins), and nystatin in the concentration range 2 μg/mL (MIK), 1 μg/mL (½MIK) and 0.5 μg/mL (¼MIK).

Candida albicans SC5314 = assay: zebrafish embryo hindbrain infection model, inhibition of candida filamentation in vivo; design: species or system Candida albicans (host: zebrafish embryo)
Experimental: The model of the brain infection (hindbrain) of the zebrafish embryo with Candida albicans, described in the literature, is an animal model of the infection system which due to the optical transparency of the embryo body provides the ability to examine and monitor the effect of applied therapeutics on replication, filamentation and fungi dissemination through the body of the zebrafish embryo as a host. The embryos at the developmental stage of 32-34 hpf were injected into the brain through an optic vesicle with 50-75 Candida albicans SC5314 cells, previously labeled with green fluorescent dye. Candida inoculum was prepared in 5% polyvinylpyrrolidone (PVP) solution. Two hours after the microinjection of candida, the infected embryos were treated with Maqui berry extract at a concentration of 0.0625 mg/mL, 0.125 mg/mL and 0.25 mg/mL, as well as nystatin at a concentration of 1 μg/mL (½MIK) and 0.5 μg/mL (¼MIK). Beside individual treatments, the infected embryos were exposed to a combined treatment (nystatin and extract together), in combinations of all mentioned doses. The embryos injected with only 5% PVP represented the control group. After the applied treatments, the zebrafish embryos were reared for the next 4 days at a temperature of 31° C. and monitored daily for survival as well as filamentation and dissemination of candida using fluorescence microscopy.

[2] = nystatin alone, MIK dose (2 μg/mL)

C[C@@H]1[C@H](O)[C@@H](C)/C=C/C=C/CC/C=C/C=C/C=C/C=C/C(O[C@H]2O[C@H](C)[C@@H](O)[C@H](N)[C@@H]2O)CC2O[C@](O)(CC(O)C(O)CCC(O)CC(O)CC(O)CC(=O)O[C@H]1C)CC(O)C2C(=O)O (stereo partly drawn) [nystatin]
MIK ([1]; clinical isolates, RPMI medium): 2 µg/mL | filamentation [1, 2]: no filamentation | growth of isolates [1, 2]: reduced growth | growth and filamentation ([1]; nystatin alone, ½MIK (1 μg/mL) and ¼MIK (0.5 μg/mL) doses): grew and filamented | filamentation in vivo (Candida albicans SC5314; both nystatin concentrations (0.5 and 1 μg/mL)): filamentation was present | infection (candidiasis) compared to untreated embryos (Candida albicans SC5314; nystatin 0.5 μg/mL (¼MIK) and 1 μg/mL (½MIK)): significantly reduced
